In patent US11642413B2, “Compounds for degrading Tau protein aggregates and uses thereof” (Aprinoia Therapeutics Limited, priority 2019, dated 2023):

Molecular target: Tau aggregates in P301L-Tau-FL-GFP HEK293 cells (Homo sapiens (Human), UniProt P10636, P301L)
Assay: Tau degradation assay (APNmAb005 ELISA-based Tau aggregation assay)
Format: cell-based
Conditions: 1 μM compound
Description: (A). Cell-based model of Tau inclusion formation: Six month old rTg4510 mouse brain lysates were used as the source of tau seeds, prepared as described in Example 26 above. P301L-Tau-FL-GFP HEK293 cells represent HEK293 cells express full-length human tau T40 (2N4R) carrying the P301L mutation with a GFP tag (P301L-Tau-FL-GFP). 1×10^6 of P301L-Tau-FL-GFP HEK293 cells were cultured on a 6-well plate in culture medium containing DMEM/F-12 (Gibco) supplemented with 10% fetal bovine serum (FBS) (Gibco), 1% Penicillin-Streptomycin (Gibco) and 0.5 mg/ml geneticin (Thermo Fisher Scientific) for 24 hours to reach 70-90% confluency, indicating the cells were ready for transfection. 50 μg of 6-month-old rTg4510 mouse brain lysate was diluted in 400 μL of serum free medium and mixed with 16 μL of lipofectamine 3000 reagent (Thermo Fisher Scientific) diluted in 400 μl of serum free medium. A solution mixture of rTg4510 brain lysate and lipofectamine 3000 was incubated at room temperature for 25 mins. The culture media were removed, and then a solution mixture of rTg4510 lysate and lipofectamine 3000 was added to the cells for transfection. The solution mixture was incubated at room temperature for five hours, followed by medium change to 10% fetal bovine serum (FBS). […]

Sequence of Tau aggregates in P301L-Tau-FL-GFP HEK293 cells (P10636 other isoform, or with tags, fused parts or gaps P301L): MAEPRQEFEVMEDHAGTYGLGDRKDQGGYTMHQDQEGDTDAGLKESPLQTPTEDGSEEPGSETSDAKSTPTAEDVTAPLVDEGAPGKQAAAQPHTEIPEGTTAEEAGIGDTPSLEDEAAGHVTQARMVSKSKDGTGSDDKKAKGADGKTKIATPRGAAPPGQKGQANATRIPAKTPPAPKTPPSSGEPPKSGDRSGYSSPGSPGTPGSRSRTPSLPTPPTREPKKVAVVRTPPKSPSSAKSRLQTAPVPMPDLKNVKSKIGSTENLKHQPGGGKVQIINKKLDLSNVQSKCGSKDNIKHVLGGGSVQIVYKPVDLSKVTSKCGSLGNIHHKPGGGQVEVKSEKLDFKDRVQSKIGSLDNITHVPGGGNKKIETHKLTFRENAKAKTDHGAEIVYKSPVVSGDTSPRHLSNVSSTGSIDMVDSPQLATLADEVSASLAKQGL

**Q.** With `CN(C)c1ccc(-c2ccc(-c3cn4cccc(OCCOCCOc5ccc6c(c5)CN(C5CCC(=O)NC5=O)C6=O)c4n3)cc2)cn1` (stereo not shown) [Compound 162842] as the compound, how does the “Optical Density (O.D.) 450 value decrease compared to vehicle” value read?
**A.** The value was 20%.
